Data on 4 compounds can be found in patent publication US20100035934A1, “PYRIDINYL-PYRAZOLE DERIVATIVES AND THEIR USE AS POTASSIUM CHANNEL MODULATORS” (NeuroSearch A/S, priority 2007, published 2010).

The assay addresses T1, hSK3 channels (Homo sapiens, UniProt Q9UGI6).
T1 construct: expressed in transfected cells; host or cells: HEK293
In words: Whole-cell patch-clamp recording of ionic current through SK channels (subtype 3) in HEK293 cells expressing hSK3. It is filed as cell-based. The settings on record: baseline current at -75 mV, free Ca2+ 0.3-0.4 μM, room temperature. The procedure: The ionic current through small-conductance Ca^2+-activated K^+ channels (SK channels, subtype 3) is recorded using the whole-cell configuration of the patch-clamp technique.
HEK293 tissue culture cells expressing hSK3 channels were grown in DMEM (Dulbecco's Modified Eagle Medium) supplemented with 10% FCS (foetal calf serum) at 37° C. in 5% CO2. At 60-80% confluency, cells were harvested by trypsin treatment and seeded on cover slips.
Experiments are carried out on one of several patch-clamp set-ups. Cells plated on coverslips are placed in a 15 μl perfusion chamber (flowrate ˜1 ml/min) mounted on an IMT-2 microscope. The microscopes are placed on vibration-free tables in grounded Faraday cages. All experiments are performed at room temperature (20-22° C.). EPC-9 patch-clamp amplifiers (HEKA-electronics, Lambrect, Germany) are connected to Macintosh computers via ITC16 interfaces. Data are stored directly on the hard-disk and analysed by IGOR software (Wavemetrics, Lake Oswega, Oreg., USA).
The whole-cell configuration of the patch-clamp technique is applied. In short: The tip of a borosilicate pipette (resistance 2-4 MΩ) is gently placed on the cell membrane using remote control systems. Light suction results in the formation of a giga seal (pipette resistance increases to more than […]) and the cell membrane underneath the pipette is then ruptured by more powerful suction. Cell capacitance is electronically compensated and the resistance between the pipette and the cell interior (the series resistance, Rs) is measured and compensated for. Usually the cell capacitance ranges from 5 to 20 pF (depending on cell size) and the series resistance is in the range 3 to 6 MΩ. Rs—as well as capacitance compensation are updated during the experiments (before each stimulus). All experiments with drifting Rs-values are discharged. Leak-subtractions are not performed.
The extracellular (bath) solution contains (in mM): 154 mM KCl, 0.1 CaCl2, 3 MgCl2, 10 HEPES (pH=7.4 with HCl). The test compound was dissolved 1000 times in DMSO from a concentrated stock solution and then diluted in the extracellular solution.
The intracellular (pipette) solution contained: 154 mM KCl, 10 mM HEPES, 10 mM EGTA. Concentrations of CaCl2 and MgCl2 needed to obtain the desired free concentrations of Ca^2+ (0.3-0.4 μM, Mg^2+ always 1 mM) were calculated by EqCal software (Cambridge, UK) and added.
After establishment of the whole-cell configuration, voltage-ramps (normally −80 to +80 mV) are applied to the cell every 5 seconds from a holding potential of 0 mV. […] Active compounds are quantified by calculating the change in baseline current at −75 mV. […]
On the technique in general: Patch clamp records ionic current or voltage across a cell membrane.

For `Cc1cc(C)n(-c2cccc(Nc3ccc(Cl)cc3)n2)n1` [Compound A1, (4-Chloro-phenyl)-[6-(3,5-dimethyl-pyrazol-1-yl)-pyridin-2-yl]-amine], the “The SC100 (Stimulating Concentration required for increasing the baseline current by 100%)” value is 0.03 µM. As for `Clc1ccc(Nc2cccc(-n3cccn3)n2)c(Cl)c1` [Compound A8, (2,4-Dichloro-phenyl)-(6-pyrazol-1-yl-pyridin-2-yl)-amine], the figure is 0.3 µM; as for `Cc1cc(C)n(-c2cccc(Nc3ccc(F)c(F)c3)n2)n1` [Compound C4, (3,4-Difluoro-phenyl)-[6-(3,5-dimethyl-pyrazol-1-yl)-pyridin-2-yl]-amine], 0.4 µM; as for `CNc1cc(-n2nc(C)cc2C)nc(Nc2ccc(Cl)cc2)c1N` [Compound D1, 3-Amino-2-(4-chlorophenylamino)-6-(3,5-dimethylpyrazol-1-yl)-4-methylamino-pyridine], 0.1 µM.
